# Results as given in patent publication US5690959A, “Pharmaceutical thermal infusion process” (priority 1993, dated 1997).
# Counter-ions that a name gives are not always drawn.
# Assays:
# [1] = cited from earlier work
# [2] = Degradation of clavulanate on thermal infusion; type: physicochemical
# [3] = cited from earlier work; remark: listed apart in the source
SMILES,solubility in water [1],degradation of clavulanate ([2]; more appropriate thermal infusion temperature),degradation of clavulanate ([2]; thermal infusion at the more extreme temperatures),hydrolytic degradation ([3]; contacted by water),spontaneous exothermic reaction ([3]; transport in bulk)
"CN/C(=N/CCSCc1nc[nH]c1C)NC#N [Cimetidine, N""-cyano-N-methyl-N'-[2-[[(5-methyl-1-H-imidazol-4-yl)methyl]thio]-ethyl]-guanidine]",moderately soluble in water,,,,
O=C(O)[C@H]1/C(=C/CO)O[C@@H]2CC(=O)N21 [clavulanate],highly water soluble,eliminates the degradation,minimal degree of degradation,,
"O=C(O)[C@H]1/C(=C/CO)O[C@@H]2CC(=O)N21 [salts of clavulanic acid, Z-(3R,5R)-2-(β-hydroxyethyldiene) clavam-3-carboxylate]",freely water soluble,,,undergo spontaneous hydrolytic degradation when contacted by water,undergo a spontaneous exothermic reaction with the release of large quantities of gas and fumes
